Laboratory results taken from patent publication US5824696A, “Medicaments” (SmithKline Beecham Corporation, priority 1993, dated 1998).
Where a chain is given by its changes, count along the chain named. pKi: −log10 of the molar value. Read-outs that look alike come from different tables or passages of the source.

Tests used:
[1] = target: T1, contractile response to angiotensin II in the isolated rabbit aorta (Oryctolagus cuniculus, UniProt P34976); experiment: Antagonism of angiotensin II induced vasoconstriction in isolated rabbit aorta; details: rabbit thoracic aorta rings, 30-minute incubation, dose ratio method; read-out: Antagonist dissociation constant (KB)
T1 construct: Ring segments are cut from the rabbit thoracic aorta; from tissue; host or cells: rabbit thoracic aorta ring segments
T1 sequence (P34976 1-359): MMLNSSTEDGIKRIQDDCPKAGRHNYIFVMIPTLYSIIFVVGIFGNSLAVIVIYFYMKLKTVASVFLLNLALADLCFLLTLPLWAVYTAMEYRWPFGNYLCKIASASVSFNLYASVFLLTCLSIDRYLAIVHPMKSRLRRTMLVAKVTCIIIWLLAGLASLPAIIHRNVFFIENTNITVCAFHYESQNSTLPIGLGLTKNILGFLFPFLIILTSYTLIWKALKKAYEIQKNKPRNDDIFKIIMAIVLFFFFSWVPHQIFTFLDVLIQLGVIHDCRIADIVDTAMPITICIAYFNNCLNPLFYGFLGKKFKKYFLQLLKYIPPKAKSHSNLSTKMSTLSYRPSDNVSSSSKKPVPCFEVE
Experimental: Angiotensin II antagonist activity is assessed by in vitro methods In vitro antagonist activity is determined by the ability of the compounds to compete with ^125 I-angiotensin II for binding to vascular angiotensin II receptors and by their ability to antagonize the contractile response to angiotensin II in the isolated rabbit aorta.
The ability of the compounds to antagonize angiotensin II induced vasoconstriction is examined in the rabbit aorta. Ring segments are cut from the rabbit thoracic aorta and suspended in organ baths containing physiological salt solution. The ring segments are mounted over metal supports and attached to force displacement transducers which are connected to a recorder. Cumulative concentration response curves to angiotensin II are performed in the absence of antagonist or following a 30-minute incubation with antagonist. Antagonist dissociation constants (KB) are calculated by the dose ratio method using the mean effective concentrations. The KB for (E)-3-[2-n-butyl-1-{4-carboxynaphth-1-yl)methyl}-1H-imidazol-5-yl]-2-(2-thienyl)methyl-2-propenoic acid is about 0.15 nM.

[2] = target: T2, angiotensin receptors in human synovium (Homo sapiens, UniProt P30556); experiment: Inhibition of [125I](Sar1, Ile8)AII binding to human synovium, quantitative receptor autoradiography; parameters: Binding of [125I](Sar1, Ile8) angiotensin II in the presence of antagonist: unit not given here; details: for nHill values / pKi: osteoarthritic synovium; for pKi: 0.25 nM [125I](Sar1, Ile8)AII; for Binding of [125I](Sar1, Ile8) angiotensin II in the presence of antagonist: 10 μM antagonist; for Binding of [125I](Sar1, Ile8) angiotensin II in the presence of DTT: osteoarthritis
T2 construct: Human knee synovium was collected at surgery from patients with osteoarthritis or rheumatoid arthritis; from tissue; host or cells: human knee synovium cryostat sections (osteoarthritis, rheumatoid arthritis, chondromalacia patellae)
T2 sequence (P30556 1-359): T1 sequence (P34976 1-359) with M2I, A49V, V254I, V270I, H272R, K311R, S349T, V353A
Experimental: Human knee synovium was collected at surgery from patients with osteoarthritis or rheumatoid arthritis undergoing total knee replacement and patients with chondromalacia patellae undergoing carbon fibre resurfacing of articular cartilage. Tissue samples were immediately embedded in Tissue-Tek (Miles Inc., Elkhart, Ind., USA) and frozen to cork mounts in melting isopentane without prior fixation. Specimens were stored at -40° C. until use. […] thick sections were cut in a cryostat and thaw mounted onto Vectabond™ (Vector Laboratories, Peterborough, U.K.) treated slides, air dried and used immediately, or stored at -20° C. with silica gel for up to 5 days until use.
[…] Excess buffer was removed and sections were incubated for 90 minutes with ligand in buffer B (buffer A plus 1% bovine serum albumin). […] Except where stated, incubations were performed at 22° C.
Films were developed in Kodak D9 for 3 minutes at 15° C. […] Synovial structures were identified, where necessary, by comparison of films with tissue sections counterstained with haematoxylin and eosin. Tissue structures (blood vessels, lining cells and regions of subintimal stroma displaying specific binding) were each delineated interactively. Binding was quantified on the 20 blood vessels in each section with the most dense specific binding.
Specific binding was defined as total minus non-specific binding. Characterisation of specific binding was performed on samples of synovium from patients with osteoarthritis.
Kinetic and equilibrium constants were derived from specific binding values by iterative non-linear regression assuming single site models using GraphPAD Inplot4 (San Diego). […] Values for binding inhibition constants (Ki) and HIll coefficients (nHill) were derived by fitting to sigmoid curves.

[3] = tested on: angiotensin receptors in human synovium; experiment: Guanine nucleotide sensitivity of [125I]AII binding to human synovium; details: 1 μM GTPγS

## CCCCc1ncc(/C=C(\Cc2cccs2)C(=O)O)n1Cc1ccc(C(=O)O)c2ccccc12 [(E)-3-[2-n-butyl-1-{4-carboxynaphth-1-yl)methyl}-1H-imidazol-5-yl]-2-(2-thienyl)methyl-2-propenoic acid]
[1]
  Kb: ~0.15 nM

## CCCCc1ncc(/C=C(\Cc2cccs2)C(=O)O)n1Cc1ccc(C(=O)O)cc1 [(E)-3-[2-n-butyl-1-{4-carboxyphenyl)methyl}-1H-imidazol-5-yl]-2-(2-thienyl)methyl-2-propenoic acid]
[2]; blood vessels
  nHill values: 1.2
[2]; blood vessels, read-out: Ki values
  pKi: 7.31
[2]; inflamed human synovium
  Inhibition of binding of [125I](Sar1, Ile8)AII to microvessels, lining cells and stroma: potently and completely inhibited
[2]; lining cells
  nHill values: 0.8
[2]; lining cells, read-out: Ki values
  pKi: 7.22
[2]; stroma
  nHill values: 0.8
[2]; stroma, read-out: Ki values
  pKi: 7.09

## Cc1cc(Cn2cnc3c2C[C@@H](C(=O)O)N(C(=O)C(c2ccccc2)c2ccccc2)C3)ccc1N(C)C [PD123319]
[2]; 10 μM, synovium from patients with osteoarthritis and rheumatoid arthritis
  Inhibition of specific [125I](Sar1, Ile8)AII binding to each structure: not significantly inhibited
[2]; Ki values, blood vessels
  pKi: < 5.00
[2]; Ki values, lining cells
  pKi: < 5.00
[2]; Ki values, stroma
  pKi: < 5.00
[2]; blood vessels, OA, total 7.9, nonspecific 2.4
  Binding of [125I](Sar1, Ile8) angiotensin II in the presence of antagonist: 7.1
[2]; blood vessels, RA, total 14, nonspecific 2.6
  Binding of [125I](Sar1, Ile8) angiotensin II in the presence of antagonist: 12
[2]; lining cells, OA, total 3.6, nonspecific 1.6
  Binding of [125I](Sar1, Ile8) angiotensin II in the presence of antagonist: 3.8
[2]; lining cells, RA, total 5.7, nonspecific 1.7
  Binding of [125I](Sar1, Ile8) angiotensin II in the presence of antagonist: 5.5
[2]; stroma, OA, total 2.4, nonspecific 1.5
  Binding of [125I](Sar1, Ile8) angiotensin II in the presence of antagonist: 2.2
[2]; stroma, RA, total 3.0, nonspecific 1.6
  Binding of [125I](Sar1, Ile8) angiotensin II in the presence of antagonist: 2.9

## Nc1nc2c(ncn2[C@@H]2O[C@H](COP(=O)(O)OP(=O)(O)OP(O)(O)=S)[C@@H](O)[C@H]2O)c(=O)[nH]1 [GTPγS, guanosine 5'-O-(3-thiotriphosphate)]
[2]; 1 μM GTPγS
  Inhibition of [125I](Sar1, Ile8)AII binding: did not inhibit
[3]
  Inhibition of binding of agonist [125I]AII to each structure: levels not significantly different from nonspecific binding

## O[C@H](CS)[C@H](O)CS (racemic) [DTT, dithiothreitol]
[2]; 10 mM DTT
  Inhibition of specific [125I](Sar1, Ile8)AII binding to each structure: completely inhibited
[2]; blood vessels, 10 mM DTT, total 10.2, nonspecific 3.2
  Binding of [125I](Sar1, Ile8) angiotensin II in the presence of DTT: 3.2 (2.9 to 3.5) amol mm^-2
[2]; lining cells, 10 mM DTT, total 5.1, nonspecific 2.1
  Binding of [125I](Sar1, Ile8) angiotensin II in the presence of DTT: 2.0 (1.8 to 2.3) amol mm^-2
[2]; stroma, 10 mM DTT, total 2.6, nonspecific 1.7
  Binding of [125I](Sar1, Ile8) angiotensin II in the presence of DTT: 1.6 (1.5 to 1.7) amol mm^-2
